According to US10695324B2, “Treatment for wolfram syndrome and other endoplasmic reticulum stress disorders” (Washington University, priority 2014, dated 2020):
Ends that are not written are not given here. Peptide text beside a SMILES is read from it. * marks the point of attachment. Cbz = O=C(OCc1ccccc1)*

Tests used:
[1] = test system: CAPNS1 protein in HEK293T cells ectopically expressing WFS2; assay: CAPNS1 protein level after proteasome inhibition; format: cell-based; conditions: 2 μM
Experimental: To find out whether WFS2 regulates CAPNS1 stability through the ubiquitin-proteasome pathway, HEK293T cells ectopically expressing WFS2 were treated with a proteasome inhibitor, MG132 (2 μM), and then the CAPNS1 protein level was measured.

INS-1 823/13 cells = assay: Small-scale screen for prevention of thapsigargin mediated cell death, caspase 3/7-Glo luminescence; format: cell-based, rat; conditions: pretreated 24 hours, then 2 nM thapsigargin overnight
Experimental: INS-1 823/13 cells were pretreated with DMSO or drugs for 24 hours the incubated in media containing 2 nM of thapsigargin (TG) overnight. Apoptosis was detected by caspase 3/7-Glo luminescence. […] These eight compounds were PARP Inhibitor, dantrolene sodium, NS398, rapamycin, pioglitazone, calpain inhibitor III, docosahexaenoic acid (DHA), and GLP-1 (FIG. 8A).

[2] = test system: Neuro2a cells transfected with siRNA against WFS2; assay: WFS2-knockdown mediated cell death, cleaved caspase 3 immunoblotting and Annexin V staining; format: cell-based, mouse; conditions: neuronal cell line; 100 μM for 12 hours, 36 hours post-transfection
Experimental: Flow cytometry analyses (FACS) were performed with LSRII Flow Cytometer (BD Biosciences, San Jose, Calif.) at the FACS core facility of Washington University School of Medicine Neural progenitor cells or NSC34 cells were plated in 24-well plates. After staining with Annexin V, cells were washed and resuspended in PBS. Cells were run using standard protocols, specifically Annexin V positive cell (i.e., apoptotic cells). The results were analyzed by FlowJo ver.7.6.3 (Ashland, Oreg.).
(§1) Neuro2a and MIN6 cells were transfected with siRNA against WFS2 or a control scrambled siRNA (Cont.). After 36 hours post-transfection, cells were untreated or treated with 100 μM calpeptin for 12 hours. Cleaved caspase 3 and actin levels were assessed by immunoblotting (FIG. 5A, left panel). Quantified levels of cleaved caspase-3 are shown in FIG. 5A, right panel (n=3, *P<0.05). Additionally, early stage apoptosis was monitored by Annexin V staining followed by flow cytometry, FIG. 5C. INS-1 832/13 cells were transfected with scrambled siRNA and WFS2 siRNA. After 24 hours post-transfection, cells were untreated or treated with 5 μM calpeptin for 24 hours. Cleaved caspase-3, WFS2, and actin levels were monitored by immunoblotting (FIG. 5D, left panel) and quantified (FIG. 5D, right panel) (n=3, *P<0.05).

[3] = test system: MIN6 cells transfected with siRNA against WFS2; assay: WFS2-knockdown mediated cell death, cleaved caspase 3 immunoblotting; format: cell-based, rodent; conditions: β cell line; 100 μM for 12 hours, 36 hours post-transfection
Experimental: as §1

[4] = test system: INS-1 832/13 cells transfected with WFS2 siRNA; assay: WFS2-knockdown mediated cell death, cleaved caspase-3 immunoblotting; format: cell-based, rat; conditions: β cell line; 5 μM for 24 hours, 24 hours post-transfection
Experimental: as §1

INS-1 832/13 cells = assay: Cytoplasmic calcium levels by Fura-2 calcium indicator; format: cell-based, rat; conditions: 10 μM for 24 hours
Experimental: (§2) First, the question of whether dantrolene could decrease cytoplasmic calcium levels was tested. […] and NSC34 cells were untreated or treated with 10 μM dantrolene for 24 hours. Cytoplasmic calcium levels were measured by Fura-2 calcium indicator over a period of 5 minutes. Thapsigargin (1 μM) was added at time 0. […] Next, it was necessary to determine if dantrolene could restore cytosolic calcium levels in WFS1-deficient cells.

NSC34 cells = assay: as above; format: cell-based; conditions: 10 μM for 24 hours
Experimental: as §2

[5] = test system: WFS1 silenced INS-1 832/13 cells; assay: Protection of WFS1 silenced cells, immunoblotting of cleaved caspase-3 and cleaved spectrin; format: cell-based, rat; conditions: 10 μM for 48 hours
Experimental: In order to determine whether dantrolene conferred protection in WFS1 deficient cells and WFS1 silenced INS-1 832/13 cells were treated with dantrolene. INS-1 832/13 cells were transfected with scrambled siRNA or siRNA directed against WFS1. Cells were untreated or treated with 10 μM dantrolene for 48 hours, then incubated in media containing 0.5 μM thapsigargin for 6 hours. Expression levels of cleaved caspase-3 under untreated and thapsigargin treated conditions (FIG. 9A, left panel) were quantified and shown in FIG. 9A, center and right panels (n=3, *P<0.05). Protein levels of cleaved spectrin, WFS1, and GAPDH were analyzed by immunoblotting (FIG. 9B, left panel) and quantified (FIG. 9B, right panel) (n=3, *P<0.05). […]

[6] = test system: WFS1-knockdown NSC34 cells; assay: Protection of WFS1-knockdown cells, immunoblotting of cleaved caspase-3 and cleaved spectrin; format: cell-based; conditions: 10 μM for 24 hours
Experimental: NSC34 cells were transfected with scrambled siRNA or siRNA directed against WFS1, then untreated or treated with 10 μM dantrolene for 24 hours.

[7] = test system: INS-1 832/13 cells transfected with WFS2 siRNA; assay: Cell death mediated by WFS2 knockdown, cleaved caspase-3 immunoblotting; format: cell-based, rat; conditions: 10 μM for 24 hours, 24 hours post transfection
Experimental: (§3) In to determine if danotrolene affects ER calcium homeostasis, cells were treated with ryanodine or dantrolene. INS-1 832/13 cells were transfected with scrambled siRNA or WRFS1 siRNA. After 24 hours post-transfection, cells were untreated or treated with 2 μM ryanodine for 24 hours. Cleaved caspase-3, WFS1, and GAPDH levels were monitored by immunoblotting (FIG. 10A, left panel) and quantified ([…], right panel). INS-1 832/13 cells (FIG. 10B) and NSC34 cells (FIG. 10C) were transfected with scrambled siRNA or WRFS2 siRNA. After 24 hours post transfection, cells were untreated or treated with 10 μM dantrolene for 24 hours. Cleaved caspase-3, WFS2, and GAPDH levels were monitored by immunoblotting.

[8] = test system: NSC34 cells transfected with WFS2 siRNA; assay: as above; format: cell-based; conditions: 10 μM for 24 hours, 24 hours post transfection
Experimental: as §3

[9] = cited from earlier work
[10] = test system: ER-localized ryanodine receptors; conditions: previous studies; cited from earlier work
INS1E cells = assay: ER stress- and cytokine-induced β cell death, caspase 3/7 activity assay; conditions: 100 nM
From the text: A Caspase 3/7 assay (Promega, Madison, Wis.) was utilized to measure caspase-3 and -7 activities in various cell lines. The assay provides a proluminescent caspase-3/7 substrate, which contains the tetrapeptide sequence DEVD. This caspase-3/7 substrate can be added directly to cell lysates. The substrate is cleaved to release a aminoluciferin, which is a substrate for luciferase used in the production of light. The signal is proportional to caspase-3/7 activity.

[11] = test system: neural progenitor cells derived from iPS cells of a Wolfram syndrome subject; assay: Thapsigargin-induced cell death in patient neural progenitor cells, cleaved caspase-3 immunoblotting; conditions: pretreated 10 μM for 48 hours, then 0.125 μM thapsigargin for 20 hours
From the text: To generate iPS cells, fibroblasts were obtained from non-affected controls and subjects with Wolfram syndrome. […] To generate neural progenitor cells, iPSCs were counted and plated ˜50,000 per well in a 96-well plate to form uniform embryoid bodies. After 5 days, embryoid bodies were suspended in neural induction media and replated as adherent cultures. Fresh media was applied every day for 7 days. Neural rosettes formed in these cultures were selected and plated. Plated rosettes were fed with neural induction media every day for 4-7 days to obtain neural progenitor cells.
Wolfram patient neural progenitor cells were pretreated with or without 10 μM dantrolene for 48 hours.

[12] = test system: INS-1 832/13 cells expressing D1ER; assay: ER calcium monitoring with D1ER (FRET/CFP ratio, FACS); format: cell-based, rat; conditions: various concentrations, dose-dependent manner
From the text: A β cell line was developed to monitor ER calcium levels under various conditions. The ER-localized calcium sensor D1ER was modified to contain two fluorescent proteins, CFP and YFP, which were inserted onto the N- and C-terminus, respectively. INS-1 832/13 cells were transfected with the modified D1ER calcium sensor. When Ca^2+ binds to the calmodulin, an intramolecular rearrangement occurs and brings CFP and YFP into close proximity resulting in a fluorescence resonance energy transfer (FRET) from CFP to YFP. The FRET signal allows ratiometric measurements of free ER Ca^2+ and changes in Ca^2+ using FRET/CFP ratio.
INS-1 832/13 cells that stably express D1ER were treated with digitonin and ethylene glycol tetraacetic acid (EGTA) which causes the minimum value of FRET/CFP ratio, FIG. 10F. Additionally, cells treated with digitonin and CaCl2 led to the maximum value of FRET/CFP ratio, FIG. 10F.
FRET/CFP ratio was decreased in INS-1 832/13 cells treated with thapsigargin in a dose-dependent manner (FIG. 10G). Additionally, the rates of ER calcium-depleted cells increased in cells treated with thapsigargin in a dose-dependent manner (FIG. 10G).

[13] = test system: ER stress-mediated cell death; conditions: have been shown (references); cited from earlier work
[14] = thapsigargin 1 μM added at time 0, Fura-2 over 5 minutes

Compound: CC(C)C[C@@H](C=O)NC(=O)[C@H](CC(C)C)NC(=O)[C@H](CC(C)C)NC(=O)OCc1ccccc1 [MG132] (Cbz-Leu-Leu-Leu-aldehyde)
- CAPNS1 protein level [1]: stabilized CAPNS1 protein

Compound: CS(=O)(=O)Nc1ccc([N+](=O)[O-])cc1OC1CCCCC1 [NS398]
- suppression of thapsigargin mediated cell death (apoptosis by caspase 3/7-Glo luminescence) (INS-1 823/13 cells; 10 μM (Table 3)): significantly suppress thapsigargin mediated cell death

Compound: CC(C)[C@H](NC(=O)OCc1ccccc1)C(=O)N[C@H](C=O)Cc1ccccc1 [calpain inhibitor III] (Cbz-Val-Phe-aldehyde)
- suppression of thapsigargin mediated cell death (apoptosis by caspase 3/7-Glo luminescence) (INS-1 823/13 cells; 1 μM (Table 3)): significantly suppress thapsigargin mediated cell death

Compound: CCCC[C@@H](C=O)NC(=O)[C@H](CC(C)C)NC(=O)OCc1ccccc1 [calpeptin]
- WFS2-knockdown mediated cell death [2]: prevented WFS2-knockdown mediated cell death
- WFS2-knockdown mediated cell death [3]: prevented WFS2-knockdown mediated cell death
- WFS2-knockdown mediated cell death [4]: prevented WFS2-knockdown mediated cell death

Compound: O=C1CN(/N=C/c2ccc(-c3ccc([N+](=O)[O-])cc3)o2)C(O)=N1 [dantrolene, 1-[[5-(4-nitrophenyl)-2-furyl]methylideneamino]imidazolidine-2,4-dione]
- suppression of thapsigargin mediated cell death (apoptosis by caspase 3/7-Glo luminescence) (INS-1 823/13 cells; 10 μM (Table 3)): significantly suppress thapsigargin mediated cell death
- cytosolic calcium levels (INS-1 832/13 cells; [14]): decreased cytosolic calcium levels
- cytosolic calcium levels in WFS1-knockdown cells (INS-1 832/13 cells; WFS1-knockdown INS-1 832/13 cells): restored cytosolic calcium levels
- cytosolic calcium levels (NSC34 cells; [14]): decreased cytosolic calcium levels
- cytosolic calcium levels in WFS1-knockdown cells (NSC34 cells; WFS1-knockdown NSC34 cells): restored cytosolic calcium levels
- calpain activity (cleaved spectrin) ([5]; then 0.5 μM thapsigargin for 6 hours): suppression of apoptosis and calpain activity
- apoptosis (cleaved caspase-3) ([5]; then 0.5 μM thapsigargin for 6 hours or untreated): suppression of apoptosis
- calpain activation (cleaved spectrin) [6]: prevented calpain activation
- cell death (cleaved caspase-3) [6]: prevented calpain activation and cell death
- cell death mediated by WFS2 knockdown [7]: did not block cell death mediated by WFS2 knockdown
- cell death mediated by WFS2 knockdown [8]: did not block cell death mediated by WFS2 knockdown
- solubility in water [9]: poorly soluble in water
- leakage of calcium from the ER to the cytosol [10]: suppresses leakage of calcium from the ER to the cytosol
- cytokine induced β cell death (INS1E cells; inflammatory cytokine 50 ng/mL): prevented
- thapsigargin-induced β cell death (INS1E cells; thapsigargin 10 nM for 24 hours): prevented
- thapsigargin-induced cell death (cleaved caspase-3) [11]: could prevent cell death

Compound: C/C=C(/C)C(=O)O[C@H]1C(C)=C2[C@H]([C@@H]1OC(=O)CCCCCCC)[C@@](C)(OC(C)=O)C[C@H](OC(=O)CCC)[C@@]1(O)[C@H]2OC(=O)[C@@]1(C)O [thapsigargin]
- FRET/CFP ratio (ER calcium) [12]: decreased
- rates of ER calcium-depleted cells [12]: increased

Compound: GLP-1: Glucagon-like peptide-1; FDA approved drug (HAEGTFTSDVSSYLEGQAAKEFIAWLVKGR; ends and bridges not checked; UniProt P01275 98-127, looked up)
- suppression of thapsigargin mediated cell death (apoptosis by caspase 3/7-Glo luminescence) (INS-1 823/13 cells; 50 nM (Table 3)): significantly suppress thapsigargin mediated cell death
- protection against ER stress-mediated cell death [13]: confer protection against ER stress-mediated cell death
